Measurements from ChEMBL document CHEMBL6178013, “Ferroptosis of Cancer Cells via Tubulin Degradation and Mitochondrial Dysfunction: A Novel Mechanism of Anticancer Effect for Small-Molecule Anion Transporters” (J Med Chem, 2025).
Calls of active or inactive are those of the source. No cut-off for these calls is given here.

Tests used:
HeLa [1] = assay: Antitumor activity against human HeLa cells xenografted in male Balb/C nude mouse assessed as average tumor size at 2 mg/kg, ip administered on every 2 days measured after 18 days (reference value: 1995.1 mm3); type: functional; conditions: time 18 day
[2] = Toxicity in male Balb/C nude mouse xenografted with human HeLa cells assessed as body weight change at […], ip administered on every 2 days measured after 18 days; type: organism-based; conditions: in vivo, 432 h, time 18 day
HeLa [3] = assay: Cytotoxicity against human HeLa cells incubated for 48 hrs by MTT assay; type: functional, cell-based
MCF7 = assay: Cytotoxicity against human MCF7 cells incubated for 48 hrs by MTT assay; type: functional, cell-based; conditions: MCF7, 48 h
HepG2 = assay: Cytotoxicity against human HepG2 cells incubated for 48 hrs by MTT assay; type: functional, cell-based; conditions: HepG2, 48 h
Chloride [4] = assay: Binding affinity to chloride anions assessed as anionophoric activity in egg-yolk L-alpha-phosphatidylcholine liposome model measured per lipid by pyranine-based fluorescent assay
Chloride [5] = assay: Binding affinity to chloride anions assessed as transport of chloride anions across bulky nitrobenzene membrane in U-shaped tube harboring NaCl in donor phase and NaNO3 in receiving phase at 1 mM measured for 12 hrs by chloride ion selective electrode technique
A549 = assay: Cytotoxicity against human A549 cells incubated for 48 hrs by MTT assay; type: functional, cell-based; conditions: A549, 48 h
Chloride [6] = assay: Binding affinity to chloride anions assessed as chloride efflux in egg-yolk L-alpha-phosphatidylcholine liposome model measured per lipid in presence of intravesicular NaCl/extravesicular NaNO3 by chloride ion selective electrode technique
Liposome = assay: Disruption of egg-yolk L-alpha-phosphatidylcholine liposome model membrane assessed as calcein leakage by fluorescence based assay; type: subcellular
Chloride [7] = assay: Binding affinity to chloride anions assessed as fold increase in anionophoric activity in egg-yolk L-alpha-phosphatidylcholine liposome model measured per lipid by pyranine-based fluorescent assay relative to m-Bimbe
Chloride [8] = assay: Binding affinity to chloride anions using tetrabutylammonium chloride salt assessed as association constant by 1H NMR spectroscopy
Chloride [9] = assay: Binding affinity to chloride anions in human HeLa cells assessed as decrease in orange fluorescence in cytoplasm at 5 uM incubated for 6 hrs by AO staining based analysis relative to control; type: cell-based; design: scale not given: the % may be the effect or the level left
Chloride [10] = assay: Binding affinity to chloride anions in human HeLa cells assessed as increase in green fluorescence in cytoplasm at 5 uM incubated for 6 hrs by AO staining based analysis; type: cell-based
Chloride [11] = assay: Binding affinity to chloride anions in human HeLa cells assessed as decrease in red fluorescence in cytoplasm at 5 uM incubated for 1.5 hrs by MR-(RR)2 staining based analysis; type: cell-based
Chloride [12] = assay: Binding affinity to chloride anions in human HeLa cells assessed as chloride influx up to 5 uM incubated for 2 hrs by MQAE staining based analysis; type: cell-based

Row | EC50 (Chloride [4]) | Activity (Chloride [5]) | EC50 (Chloride [6]) [mol%] | Activity (Liposome) | fold change (FC) (Chloride [7]) | Ka (Chloride [8]) | Compound | Activity (HeLa [1]) [mm3] | Activity [2] | IC50 (HeLa [3]) [µM] | IC50 (MCF7) [µM] | IC50 (HepG2) [µM] | IC50 (A549) [µM] | Activity (Chloride [9]) | Activity (Chloride [10]) | Activity (Chloride [11]) | Activity (Chloride [12])
1 |  |  |  |  |  |  | COc1cccc2c1C(=O)c1c(O)c3c(c(O)c1C2=O)C[C@@](O)(C(=O)CO)C[C@@H]3O[C@H]1C[C@H](N)[C@H](O)[C@H](C)O1 [DOXORUBICIN] | 1093.2 | Toxic | 0.11 | 0.26 | 2.3 |  |  |  |  | 
2 | 3.79 10^-2mol% | Active | 0.2 | inactive | 2.55 10^2No_unit | 1.01 10^3/M | Fc1cc(-c2nc3cc(F)c(C(F)(F)F)cc3[nH]2)cc(-c2nc3cc(F)c(C(F)(F)F)cc3[nH]2)c1 |  |  | 3.9 | 3.33 | 3.13 | 3.97 | Active; The Result Indicates That Compound Basify Acidic Organelles | Active; The Result Indicates That Compound Basify Acidic Organelles |  | 
3 | 1.54 10^-2mol% | Active | 0.94 | inactive | 6.28 10^2No_unit | 1.17 10^4/M | Fc1cc(-c2nc3ccc(C(F)(F)F)cc3[nH]2)cc(-c2nc3ccc(C(F)(F)F)cc3[nH]2)c1 |  |  | 3.53 | 3.17 | 1.67 | 4.53 | Active; The Result Indicates That Compound Basify Acidic Organelles | Active; The Result Indicates That Compound Basify Acidic Organelles |  | 
4 | 2.76 10^-3mol% |  | 0.06 |  | 3.5 10^3No_unit | 1.45 10^4/M | c1cc(-c2nc3ccccc3[nH]2)cc(-c2nc3ccccc3[nH]2)c1 |  |  |  |  |  |  |  |  |  | 
5 | 0.27 mol% | Active | 1.92 | inactive | 35.8 | 2.93 10^4/M | FC(F)(F)c1cc(C(F)(F)F)c2nc(-c3cccc(-c4nc5c(C(F)(F)F)cc(C(F)(F)F)cc5[nH]4)c3)[nH]c2c1 |  |  | 2.84 | 2.4 | 8.3 | 1.49 | Active; The Result Indicates That Compound Basify Acidic Organelles | Active; The Result Indicates That Compound Basify Acidic Organelles | Active; The Result Reveals That Compound Can Alkalize Lysosomes | Active
6 | 2 10^-3mol% | Active | 0.3 | inactive | 4.84 10^3No_unit | 5.25 10^3/M | O=[N+]([O-])c1cc(-c2nc3ccc(C(F)(F)F)cc3[nH]2)cc(-c2nc3ccc(C(F)(F)F)cc3[nH]2)c1 |  |  | 8.33 | 8.6 | 6.8 | 7.78 | Active; The Result Indicates That Compound Basify Acidic Organelles | Active; The Result Indicates That Compound Basify Acidic Organelles | Active; The Result Reveals That Compound Can Alkalize Lysosomes | Active
7 | 2.37 10^-2mol% | Active | 0.11 | inactive | 4.08 10^2No_unit | 4.95 10^3/M | O=[N+]([O-])c1cc(-c2nc3cc(F)c(C(F)(F)F)cc3[nH]2)cc(-c2nc3cc(F)c(C(F)(F)F)cc3[nH]2)c1 |  |  | 4.23 | 3.4 | 2.2 | 10.2 | 100% | Active; The Result Indicates That Compound Basify Acidic Organelles | Active; The Result Reveals That Compound Can Alkalize Lysosomes | Active
8 | 5.34 10^-3mol% | Active | 0.02 | inactive | 1.81 10^3No_unit | 6.58 10^3/M | O=[N+]([O-])c1cc(-c2nc3c(C(F)(F)F)cc(C(F)(F)F)cc3[nH]2)cc(-c2nc3c(C(F)(F)F)cc(C(F)(F)F)cc3[nH]2)c1 |  |  | 9.67 | 10.8 | 16.5 | 10.5 | 100% | Active; The Result Indicates That Compound Basify Acidic Organelles | Active; The Result Reveals That Compound Can Alkalize Lysosomes | Active
9 | 9.67 mol% | Active | > 10 | inactive |  | 3.51 10^3/M | FC(F)(F)c1ccc2nc(-c3cccc(-c4nc5ccc(C(F)(F)F)cc5[nH]4)c3)[nH]c2c1 |  |  | 12.3 | 10.5 | 10.6 | 12.8 | Not active; Only Slight Activity Was Observed | Not active; Only Slight Activity Was Observed |  | 
10 | 0.64 mol% | Active | 4.11 | inactive | 15.1 | 6.96 10^3/M | Fc1cc2nc(-c3cccc(-c4nc5cc(F)c(C(F)(F)F)cc5[nH]4)c3)[nH]c2cc1C(F)(F)F |  |  | 18.3 | 11.2 | 11.2 | 28.8 | Active; The Result Indicates That Compound Basify Acidic Organelles | Active; The Result Indicates That Compound Basify Acidic Organelles |  | 
